Experiment in all cases: NCI anticancer screen, dose series, 48 h
Assay [1] deals with U251 CNS.
The test system of assay [2] is OVCAR-3 ovarian.
Assay [3] concerns DU-145 prostate.
The subject of assay [4] is M14 melanoma.
The subject of assay [5] is COLO 205 colon.
Assay [6] deals with NCI-H460 lung.
In assay [7] the test system is RXF 393 renal.
Assay [8] has as its system 786-0 renal.
Assay [9] relates to HCT-116 colon.
The subject of assay [10] is MDA-N.
Assay [11] concerns BT-549 breast.

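Following 48 hours of exposure in 96-well plates, responses at five concentrations were used to interpolate endpoints linearly. TGI marks complete inhibition of growth.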 A value given as a limit tells only on which side of the number the result lay.

For `CC(C)CCCC(C)[C@H]1CCC2[C@@H]3CCC4Cc5nc6c(nc5C[C@]4(C)C3CC[C@@]21C)CC1CC[C@@H]2C(CC[C@@]3(C)C2CC[C@@H]3O)[C@@]1(C)C6` (some centres undefined), the TGI in [1], in [2], in [3], in assay [4], in assay [5] and in assay [6] was more than 100 µM in each case. Also, the TGI in [7], in [8], in assay [9], in [10] and in assay [11] was more than 100 µM in each case.
As to `COc1cc(S(=O)(=O)Nc2ccc(-c3csc(/N=C\c4cccs4)n3)cc2)ccc1Cl`, the TGI in assay [2], in assay [3], in [4], in [5], in assay [6] and in [8] was more than 100 µM each time. Moreover, the TGI in assay [9], in assay [10] and in assay [11] was more than 100 µM throughout.
For `CC(=O)c1sc2c(c1O)c(=O)n(-c1ccccc1)c(=S)n2-c1ccccc1`, the TGI in assay [1], in [2], in [3], in assay [4], in assay [5] and in assay [6] was more than 100 µM in each case. For the same compound, the TGI in assay [7], in assay [8], in [10] and in assay [11] was more than 100 µM in each case.
Regarding `O=C1Nc2ccccc2C1S(=O)(=O)c1ccccc1` (centres undefined), the TGI in assay [1], in assay [2], in [3], in [4], in [5] and in assay [6] was more than 100 µM each time. The TGI in assay [7], in assay [8], in assay [9], in assay [10] and in assay [11] was more than 100 µM throughout.
Take `Cc1ccc(C=C(C(=O)O)C(=O)O)o1`: the TGI in assay [1], in assay [2], in assay [3], in [4], in [5] and in [6] was more than 100 µM throughout. The TGI in assay [7], in assay [8], in [9], in [10] and in assay [11] was more than 100 µM each time.
Take `FC(F)(F)c1cnc(N/N=C(/c2ccccc2)c2ccccn2)c(Cl)c1`: the TGI stood at 30.4 µM in [1]; 11.7 µM in assay [2]; 51.3 µM in [3]; 15.7 µM in assay [4]; 20.6 µM in assay [5]; 10.5 µM in assay [6]. For the same compound, the TGI was 32.5 µM in assay [7]; 17.9 µM in [8]; 12.1 µM in [9]; more than 100 µM in assay [10]; 29.8 µM in assay [11].
As to `CC1(CCCCO)C=CC(S(=O)(=O)c2ccccc2)CC1` (centres undefined), the TGI in assay [1] was 21.5 µM; in assay [2], 19 µM; in [3], 17.7 µM; in assay [4], 12.2 µM; in [5], 14.4 µM; in assay [6], 13.2 µM. For the same compound, the TGI was 17 µM in [7]; 14.8 µM in assay [8]; 12.6 µM in assay [9]; 14.4 µM in assay [10]; 27.5 µM in [11].
For the compound `O=C1c2ccccc2-n2c1nc1ccc(Cl)cc1c2=O`, the TGI in assay [1], in assay [2], in assay [3], in assay [4], in [5] and in [6] was more than 100 µM each time. Besides, the TGI in assay [7] is 44.8 µM; in assay [8], more than 100 µM; in assay [9] it was more than 100 µM; in assay [10], 48.3 µM; in assay [11], more than 100 µM.
Consider `COc1cccc(N2C(=O)C3CC(CC(C)(C)C)c4c([nH]c5ccccc45)C3C2=O)c1` (centres undefined), for which the TGI in assay [1], in assay [2], in [3], in [4], in [5] and in [6] was more than 10 µM throughout. Also, the TGI in [7], in assay [8], in [9], in [10] and in assay [11] was more than 10 µM each time.
As for `Cc1cc(C)nc(NC(=S)Nc2ccc(Cl)cc2)c1`, the TGI in assay [1], in assay [2], in [3], in assay [4], in assay [5] and in [6] was more than 100 µM throughout. Moreover, the TGI in assay [7] was more than 100 µM; in [8], 80.2 µM; in [9] it was more than 100 µM; in assay [10], more than 100 µM; in [11], more than 100 µM.
On to `CC(C)=NNc1ncnc2nc[nH]c12`, for which the TGI in assay [1] was more than 100 µM; in assay [2], 40.1 µM; in assay [3], 67.8 µM; in assay [4] it was more than 100 µM; in [5] it was 59.5 µM; in [6], 38.9 µM. For the same compound, the TGI is more than 100 µM in assay [7]; more than 100 µM in assay [8]; more than 75.4 µM in assay [9]; more than 100 µM in [10]; more than 100 µM in assay [11].
For the compound `O=C1CC(=O)NC(=NN2C(=O)/C(=C/c3ccc(Cl)cc3)N=C2c2ccccc2)N1`, the TGI in assay [1] is 33 µM; in assay [2], 32.6 µM; in assay [3] it was more than 100 µM; in assay [4], 29.3 µM; in assay [5], 31.5 µM; in [6], 22.9 µM. Moreover, the TGI in assay [7] is 30.1 µM; in [8], 37.5 µM; in assay [9], 30.7 µM; in [10], 30.2 µM; in assay [11] it was 30.1 µM.
In the case of `CC(=O)Oc1ccc2cc(Oc3ccccc3)c(=O)oc2c1`, the TGI in [1], in assay [2], in [3], in assay [4], in [6] and in assay [7] was more than 100 µM each time. In addition, the TGI in assay [8], in [9], in [10] and in assay [11] was more than 100 µM in each case.
As to `O=S(=O)(/N=C(\NO)Nc1ccc(Cl)cc1)c1cc(S(=O)(=O)c2ccccc2)cs1`, the TGI in assay [1] amounted to 30.6 µM; in assay [2], 31.1 µM; in assay [3] it was 33 µM; in assay [4] it was 29.2 µM; in assay [5], 34.2 µM; in assay [6], 40.7 µM. The TGI in assay [7] came out at 31 µM; in [8], 30 µM; in assay [9], 26.4 µM; in assay [10] it was 34.8 µM; in assay [11], 45.7 µM.
Regarding `CC(=O)O[C@H]1C[C@@H](OC(C)=O)[C@@](C)(O)[C@@H]2[C@@H](OC(C)=O)[C@@]3(O)[C@H](/C=C(/CCl)[C@H]4O[C@H]4[C@@H](OC(C)=O)[C@@]12C)OC(=O)[C@@H]3C`, the TGI in assay [1], in assay [2], in assay [3], in [4], in [5] and in assay [6] was more than 25 µM throughout. Besides, the TGI in assay [7], in assay [8], in assay [9], in [10] and in assay [11] was more than 25 µM throughout.
As for `Cn1cnnc1SC(F)(F)c1nc2ccccc2o1`, the TGI in [1], in assay [2], in assay [3], in assay [4], in assay [5] and in [6] was more than 100 µM throughout. Further, the TGI in [7], in assay [8], in assay [9], in assay [10] and in assay [11] was more than 100 µM each time.
For `CC1=CC(=O)c2c(O)c3c(c(O)c2C1=O)C1C(O)C(C3=O)C23C(=O)c4c(O)c(C)cc(O)c4C(O)=C2C(=O)CC(O)C13` (centres undefined), the TGI in assay [1] amounted to 15.9 µM; in [2], 7.75 µM; in [3], 3.61 µM; in assay [4] it was 10.5 µM; in assay [5] it was 4.76 µM; in [6], 5.23 µM. Also, the TGI in assay [8] was 5.69 µM; in assay [9] it was 2.5 µM; in assay [10], 2.89 µM; in assay [11] it was 17.9 µM.
As to `O=C(/C=C/c1ccc(Cl)cc1)c1ccc(Cl)s1`, the TGI in assay [1], in assay [2], in assay [3], in [4], in [5] and in [6] was more than 100 µM throughout. Further, the TGI in [7] was 85.8 µM; in [8] it was 90.9 µM; in [9] it was 22.4 µM; in [10] it was 90.2 µM; in assay [11] it was 80.7 µM.
With `O=C1NC2=NN=C(c3ccc(Br)cc3)CN2NC12c1ccccc1-c1ccccc12`, the TGI in assay [1], in assay [2], in assay [3], in assay [4], in [5] and in [6] was more than 100 µM in each case. In addition, the TGI in assay [7], in [8], in assay [9], in [10] and in [11] was more than 100 µM in each case.
As to `Clc1cccc2[nH]ncc12`, the TGI in [1], in assay [2], in assay [3], in assay [5], in assay [6] and in [7] was more than 100 µM in each case. Also, the TGI in [8], in [9], in assay [10] and in assay [11] was more than 100 µM in each case.
For the compound `Brc1ccc(-c2nc(-c3ccc(Br)cc3)n(-c3ccccc3)n2)cc1`, the TGI was more than 100 µM in assay [1]; more than 100 µM in assay [2]; more than 100 µM in assay [3]; more than 100 µM in assay [4]; 57.5 µM in assay [5]; more than 100 µM in assay [6]. Moreover, the TGI in [8], in assay [9], in assay [10] and in [11] was more than 100 µM in each case.
`CCOP(=O)(/C=C\n1ccc(=O)[nH]c1=O)OCC`: the TGI in assay [1], in assay [2], in [3], in assay [4], in assay [5] and in [7] was more than 100 µM throughout. Moreover, the TGI in assay [8], in assay [9], in assay [10] and in assay [11] was more than 100 µM throughout.
Turning to `O=C1c2ccccc2/C=C\C(c2ccccc2)=N/N1c1ccccc1Cl`, the TGI in [1] is 63.5 µM; in assay [2] it was more than 100 µM; in [3], more than 100 µM; in assay [4], 51.2 µM; in assay [6], more than 100 µM; in [7], 47.7 µM. For the same compound, the TGI in assay [8] was more than 100 µM; in assay [9] it was more than 100 µM; in assay [10], 14.7 µM; in assay [11] it was 28 µM.
On to `COc1ccc(/C=N/n2c(Cc3ccccc3)n[nH]c2=O)cc1`, for which the TGI in assay [1], in assay [2], in [3], in [4], in assay [5] and in assay [6] was more than 100 µM in each case. For the same compound, the TGI in [8], in assay [9], in assay [10] and in [11] was more than 100 µM in each case.
With `CSC1(Cc2ccccn2)C(=O)Nc2cccc([N+](=O)[O-])c21` (centres undefined), the TGI in assay [1], in [2], in assay [3], in [4], in assay [5] and in assay [6] was more than 100 µM each time. The TGI in assay [8], in [9], in [10] and in assay [11] was more than 100 µM in each case.

The values above are taken from PubChem BioAssay (NCI).
